One data set has as its system Mus musculus. The data set can be described thus: In vivo inhibition of PHD2 in ICR mouse assessed as increase in serum EPO production at 10 mg/kg, po and measured after 4 hrs by ELISA. Format: functional, organism-based. Background: An ELISA detects its analyte on a solid surface through an enzyme-linked reagent.
A short description of data set [1]: Cytotoxicity against human Hep3B cells assessed as cell viability at 12.5 ug/ml measured by MTT assay. As to conditions: at 12.5 µg/mL, read-out: Activity. It counts as toxicity, cell-based, Hep 3B2. On the technique in general: Tetrazolium assays rely on reduction of a dye to a coloured formazan, in cell work by metabolically active cells.
Data set [2] is described as follows: Cytotoxicity against human Hep3B cells assessed as cell viability at 100 ug/ml measured by MTT assay. Format: toxicity, cell-based, Hep 3B2. Conditions: at 100 µg/mL, read-out: Activity.
A further data set deals with Egl nine homolog 1 (Homo sapiens, UniProt Q9GZT9). The experiment in a line: Inhibition of PHD2 in human Hep3B cells assessed as increase in EPO production measured after 24 hrs by ELISA. Format: cell-based.

SMILES strings stand for the structures. Activity calls are given as the source filed them. The calls are words filed in the database; no cut-off is given here.

One may read the EC50 as the concentration at which the effect is half-maximal.

Sequence of Egl nine homolog 1 (Q9GZT9 whole entry): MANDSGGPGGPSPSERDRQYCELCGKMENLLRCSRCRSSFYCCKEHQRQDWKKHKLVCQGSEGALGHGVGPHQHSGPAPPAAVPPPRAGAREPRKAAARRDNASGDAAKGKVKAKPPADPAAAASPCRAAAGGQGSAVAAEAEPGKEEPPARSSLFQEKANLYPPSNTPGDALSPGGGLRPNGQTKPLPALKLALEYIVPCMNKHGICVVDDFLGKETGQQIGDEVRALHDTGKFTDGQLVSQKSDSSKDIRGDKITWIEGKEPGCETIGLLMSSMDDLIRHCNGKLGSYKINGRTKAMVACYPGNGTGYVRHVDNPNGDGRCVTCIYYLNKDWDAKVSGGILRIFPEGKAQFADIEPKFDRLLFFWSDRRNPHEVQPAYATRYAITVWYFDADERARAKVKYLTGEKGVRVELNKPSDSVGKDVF

Regarding `O=C(O)CNC(=O)c1cnc(NS(=O)(=O)c2ccccc2)nc1O`, the inhibition entry in the data set on Mus musculus is “Active”.
As for `O=C(O)CNC(=O)c1cnc(NS(=O)(=O)c2ccc(Cl)c(Cl)c2)nc1O`, in data set [1], the viability at 12.5 ug/ml was 89.5%. Besides, the viability at 100 ug/ml in data set [2] came out at 90.9%.
For the compound `O=C(O)CNC(=O)c1cnc(NS(=O)(=O)c2ccc(Br)cc2)nc1O`, the viability at 12.5 ug/ml in data set [1] came out at 100%. Also, the viability at 100 ug/ml in data set [2] was 116%. Moreover, the 50% effective concentration (EC50) on Egl nine homolog 1 turned out to be 7.97 µM.
Regarding `O=C(O)CNC(=O)c1cnc(NS(=O)(=O)c2cccc(Cl)c2)nc1O`, in data set [1], the viability at 12.5 ug/ml was 95.7%. In data set [2], the viability at 100 ug/ml is 84.4%. At Egl nine homolog 1, the EC50 amounted to 1.25 µM. The inhibition entry in the data set on Mus musculus is “Active”.
`O=C(O)CNC(=O)c1cnc(NS(=O)(=O)c2ccc(C(F)(F)F)cc2)nc1O`: in data set [1], the viability at 12.5 ug/ml turned out to be 97.2%. The viability at 100 ug/ml in data set [2] is 95.8%. Besides, the inhibition entry in the data set on Mus musculus was “Active”.
Take `O=C(O)CNC(=O)c1cnc(NS(=O)(=O)c2ccc(-c3ccccc3)cc2)nc1O`: the viability at 12.5 ug/ml in data set [1] was 91.9%. The viability at 100 ug/ml in data set [2] was determined as 73.4%. Further, the inhibition entry in the data set on Mus musculus is “Active”.
With `O=C(O)CNC(=O)c1cnc(NS(=O)(=O)Cc2ccccc2)nc1O`, the viability at 12.5 ug/ml in data set [1] was determined as 90%. Moreover, the viability at 100 ug/ml in data set [2] is 87.5%. For the same compound, in the data set with Mus musculus, the inhibition entry was “Active”.
Turning to `Cc1nc(C(=O)NCC(=O)O)c(O)c2ccc(Oc3ccccc3)cc12` [ROXADUSTAT], the viability at 12.5 ug/ml in data set [1] is 89.9%. Further, the viability at 100 ug/ml in data set [2] was found to be 58.5%. In the data set on Mus musculus, the inhibition entry was “Active”.
Consider `O=C(O)CNC(=O)c1cnc(NS(=O)(=O)c2ccc(Cl)cc2)nc1O`, for which, in data set [1], the viability at 12.5 ug/ml came out at 85.5%. Moreover, the viability at 100 ug/ml in data set [2] worked out at 93.4%.
Consider `COc1ccc(S(=O)(=O)Nc2ncc(C(=O)NCC(=O)O)c(O)n2)cc1`, for which the viability at 12.5 ug/ml in data set [1] worked out at 105%. The viability at 100 ug/ml in data set [2] amounted to 110%. The inhibition result with Mus musculus was “Active”.
For the compound `Cc1ccc(S(=O)(=O)Nc2ncc(C(=O)NCC(=O)O)c(O)n2)cc1`, the viability at 12.5 ug/ml in data set [1] came out at 98.5%. Also, the viability at 100 ug/ml in data set [2] was 102%. Moreover, the concentration for a half-maximal effect (EC50) at Egl nine homolog 1 was 9.27 µM.

These data come from ChEMBL document CHEMBL5214949, “Synthesis and biological evaluation of (4-hydroxy-2-(substitued sulfonamido)pyrimidine-5-carbonyl)glycines as oral erythropoietin secretagogues” (Bioorg Med Chem Lett, 2022).
